The test system of assay [1] is GR and AP-1 (composite element G(26)A). In words: Transient transfection of G(26)A3-Luc composite GRE luciferase reporter, hormone responsiveness. The assay is classed as cell-based, mouse. Particulars: 100 nM dexamethasone, 24 h. The text has this:
Where indicated, the expression vector 6RGR was co-transfected.
In view of the observed changes in GR and AP-1 activities, we next tested a composite element that requires both factors for transcriptional activation. The synthetic composite element, G(26)A, which resembles a sequence in the glucocorticoid regulatory region of the glutamine synthetase gene (Zhang and Young (1991) J. Biol. Chem., 266:24332-24338), contains the TAT GRE sequence linked through a 15 bp spacer to the collagenase AP-1 sequence. In this configuration, neither GR alone nor AP-1 alone (either Jun homodimers or Jun-Fos heterodimers) activates a linked reporter gene in transfected embryonal earcinoma F9 cells (which express low levels of endogenous GR and AP-1 factors), whereas co-transfection of GR and AP-1 (Jun-Jun or Jun-Fos) produces a strong synergistic activation upon hormone addition. We transfected a luciferase reporter construct containing three copies of the G(26)A composite element, G(26)A3-Luc, into cell cultures representing each stage of the fibrosarcoma progression.

The target in assay [2] is endogenous glucocorticoid receptor (GR) (Mus musculus, UniProt P06537).
Method: Cultures were established from skin and tumor tissues of several independent BPV transgenic mice (Sippola-Thiele et al., 1989), and maintained in Dulbecco's modified Eagle's medium (DMEM-21, high glucose formulation; Gibco-BRL) containing 8% fetal calf serum (Hyclone). Cells were propagated for no longer than five weeks and always used at low passage number (1-30). Several cultures were tested from each stage of the tumorigenic process: normal fibroblasts, NF (23784, 40950); mild fibromatosis, MF (39614, 14249, 27877); aggressive fibromatosis, AF (BPV7, BPV3, BPV21); fibrosarcoma, FS (BPV1, BPV22, BPV2, BPV11).
Cells were plated at least 12 h before transfeetion at ~0.5×10^6 cells per 6 cm dish. Reporter gene DNA (2 μg), together with the 6RZ (100 ng) as an internal control for efficiency of transfection, were introduced into cells using the DEAE-dextran method (Ausubel). Where indicated, the expression vector 6RGR was co-transfected. After exposure to the DNA/DEAE-dextran mixture, the cells were incubated for 24 h in fresh medium containing charcoal-strippedserum (Miesfeld et al., 1987) with or without 100 nM dexamethasone (Sigma). Cells were harvested and the luciferase activity measured according to the instructions of the manufacturer (Promega) and normalized for β-galactosidase expression as previously described (Miner and Yamamoto (1992) Genes Dev., 6:2491-2501). Each experiment was repeated at least six times and the results averaged.
To monitor the activity of the endogenous glucocorticoid receptor (GR) during dermal fibroblast tumorigenesis, we performed transient transfection assays using low passage primary cell lines representative of the four stages in this multistep pathway: normal dermal fibroblasts, NF; mild fibromatosis, MF; aggressive fibromatosis, AF; fibrosarcoma, FS. […] We first measured the hormone responsiveness of a reporter construct, TAT3-Luc, containing three tandem simple GREs derived from the tyrosine aminotransferase (TAT) gene (Jantzen et al., 1987).
Assay [3] has as its target glucocorticoid receptor (GR) (Mus musculus, UniProt P06537). The settings on record: NF, MF, AF and FS cells; 500 nM dexamethasone, 2 h.
Method: Cells were grown in 24-well plates (Corning). The medium was changed to serum-free, phenol-red free DMEM, supplemented with insulin (5 μg/ml) and transferrin (10 μg/ml), with or without 500 nM dexamethasone for 2 h. After three washes with ice-cold PBS, cells were fixed with cold (-20° C.) methanol for 10 min, and then washed with TBS. Nonspecific binding sites were blocked in blocking buffer (BB) (TBS, 1% Triton, 1% glycine, 3% bovine serum albumin and 10% normal goat serum). […] Diaminobenzidine (Sigma) was used as a substrate for the peroxidase reaction.
To assesss the nature of the differential GR activity, we examined the ligand-dependent nuclear translocation of GR in normal dermal fibroblasts and the three progressive conditions, MF, AF and FS.

endogenous glucocorticoid receptor (GR), sequence (P06537 whole entry): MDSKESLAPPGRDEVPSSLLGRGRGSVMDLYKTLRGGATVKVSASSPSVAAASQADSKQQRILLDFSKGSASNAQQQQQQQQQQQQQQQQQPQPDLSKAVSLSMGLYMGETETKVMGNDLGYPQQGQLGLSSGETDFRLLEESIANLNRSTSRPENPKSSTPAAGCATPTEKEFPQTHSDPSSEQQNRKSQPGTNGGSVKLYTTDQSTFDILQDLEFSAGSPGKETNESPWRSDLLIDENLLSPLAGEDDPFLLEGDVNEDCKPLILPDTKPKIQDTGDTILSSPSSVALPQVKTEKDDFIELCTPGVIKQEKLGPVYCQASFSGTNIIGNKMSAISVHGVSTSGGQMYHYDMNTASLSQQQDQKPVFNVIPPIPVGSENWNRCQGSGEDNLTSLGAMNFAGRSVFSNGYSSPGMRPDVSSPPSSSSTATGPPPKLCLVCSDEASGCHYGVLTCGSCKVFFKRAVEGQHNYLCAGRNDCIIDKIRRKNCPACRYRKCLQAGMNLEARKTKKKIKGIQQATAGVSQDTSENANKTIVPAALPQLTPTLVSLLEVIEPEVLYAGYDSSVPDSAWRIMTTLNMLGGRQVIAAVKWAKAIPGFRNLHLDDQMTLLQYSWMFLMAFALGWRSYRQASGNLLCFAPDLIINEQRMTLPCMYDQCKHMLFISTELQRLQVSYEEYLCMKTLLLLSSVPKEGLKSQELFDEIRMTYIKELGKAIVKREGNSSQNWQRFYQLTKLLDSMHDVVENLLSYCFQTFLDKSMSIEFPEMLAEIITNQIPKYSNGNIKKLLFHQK
glucocorticoid receptor (GR), sequence (P06537 whole entry): as above

Consider `C[C@@H]1C[C@H]2[C@@H]3CCC4=CC(=O)C=C[C@]4(C)[C@@]3(F)[C@@H](O)C[C@]2(C)[C@@]1(O)C(=O)CO` [dexamethasone], for which the “hormonal induction through the G(26)A element” value in assay [1] (AF cells) is recorded as “only a modest hormonal induction”. Also, the “induction of luciferase activity (G(26)A3-Luc)” value in assay [1] (tumor (FS) cells) is on record as “dramatically induced”. For the same compound, the “hormonal induction of luciferase activity (TAT3-Luc)” value in assay [2] (FS (fibrosarcoma) cells, 100 nM dexamethasone, 24 h) was “strong hormonal induction”. Moreover, the “stimulation of basal luciferase activity (TAT3-Luc)” value in assay [2] (NF, MF or AF cell lines, 100 nM dexamethasone, 24 h) is “only a modest stimulation”. Also, in assay [2] (nNF, dermal fibroblasts from non-transgenic mice), the “transcriptional response (TAT3-Luc)” value is reported as “low transcriptional response”. Further, the “nuclear translocation of GR” value in assay [3] is reported as “efficiently translocated to the nucleus”.

(Values after patent US5631133A, “Transition in transcriptional activation by intracellular hormone receptors at the tumor stage of dermal fibrosarcoma development” (The Regents of the University of California, priority 1995, dated 1997).)
